The IC50 is the concentration needed to halve the response being measured.

One assay deals with DAPI. The assay can be described thus: triacylglycerol accumulation inhibitor potency, dose response, cell-based, panel, Nile Red and DAPI fluorescence, H9c2 (AID 651630).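 Further: cells exposed to compound overnight before fixation and staining.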 The conditions noted are these: H9c2 cells, DAPI nuclear fluorescence (cytotoxicity counter-readout), oleic acid.
A further assay relates to TAG. The description is as above. The conditions noted are these: H9c2 cells, Nile Red TAG fluorescence, oleic acid.

Calls of active or inactive are those of the source.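 How the source made its calls: active means lipid-stain IC50 at or below a set limit, with nuclear-stain toxicity IC50 at least five times higher; inactive means the rest.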

Turning to `CCOC(=O)[C@H]1[C@H]2COc3ccc(Cl)cc3[C@@H]2N2C(=O)c3cc(OC)ccc3NC(=O)[C@@]12C`, the IC50 cytotoxicity (DAPI nuclear signal decrease) in the assay on DAPI (mean of runs) was > 25 µM (inactive); in the assay with DAPI (run 1) it was > 25 µM; with DAPI (run 2) it was > 25 µM. In addition, the IC50 is > 25 µM (inactive) in the assay on TAG (mean of runs), > 25 µM in the assay with TAG (run 1) and > 25 µM with TAG (run 2).
As for `CCOc1ccc(NC(=O)c2ccc(NC(=O)CSc3nc4ccccc4c(=O)[nH]3)cc2)cc1`, the IC50 cytotoxicity (DAPI nuclear signal decrease) in the assay on DAPI (mean of runs) was > 25 µM (inactive); in the assay on DAPI (run 1), > 25 µM; with DAPI (run 2), > 25 µM. Also, the IC50 with TAG (run 1) was 24.6 µM; in the assay on TAG (run 2), > 25 µM.
Regarding `CN(C)CCNC(=O)c1cccc2ccc(-c3ccc(-c4ccccc4)cc3)nc12`, the IC50 cytotoxicity (DAPI nuclear signal decrease) is > 25 µM (inactive) in the assay on DAPI (mean of runs), > 25 µM with DAPI (run 1) and > 25 µM in the assay with DAPI (run 2). For the same compound, the figures for the IC50 in the assay with TAG (mean of runs), with TAG (run 1) and in the assay on TAG (run 2) were 12.5 µM, 10.6 µM and 14.4 µM, respectively.
Regarding `CC(C)C[C@H]1C(=O)N2CCC[C@H]2[C@]2(O)O[C@](NC(=O)[C@@H]3C=C4c5cccc6[nH]c(Br)c(c56)CC4N(C)C3)(C(C)C)C(=O)N12` (stereo partly specified), the IC50 cytotoxicity (DAPI nuclear signal decrease) with DAPI (mean of runs) is > 25 µM (inactive); in the assay on DAPI (run 1), > 25 µM; in the assay on DAPI (run 2), > 25 µM. Further, the IC50 is 6.72 µM in the assay on TAG (mean of runs), 6.96 µM with TAG (run 1) and 6.47 µM with TAG (run 2).
Take `c1ccc(N=NC2=NN(c3ccccc3)CS2)cc1`: the IC50 cytotoxicity (DAPI nuclear signal decrease) with DAPI (run 1) and in the assay with DAPI (run 2) was > 25 µM throughout. Also, the IC50 with TAG (mean of runs) was 3.69 µM; in the assay with TAG (run 1), 3.57 µM; in the assay with TAG (run 2) it was 3.8 µM.
Consider `COc1ccc(-c2cc(C(F)F)n3ncc(C(=O)Nc4cccc(S(=O)(=O)N5CCOCC5)c4)c3n2)cc1`, for which the IC50 cytotoxicity (DAPI nuclear signal decrease) in the assay with DAPI (mean of runs) was > 25 µM (inactive); with DAPI (run 1) it was > 25 µM; in the assay with DAPI (run 2), > 25 µM. The IC50 is 13.9 µM with TAG (mean of runs), 17.5 µM in the assay with TAG (run 1) and 10.4 µM in the assay with TAG (run 2).
Turning to `O=C(c1ccoc1)N1CCN(c2cc(-c3cccnc3)nc3cc(-c4cccc(Cl)c4)nn23)CC1`, the IC50 cytotoxicity (DAPI nuclear signal decrease) in the assay with DAPI (run 1) and in the assay with DAPI (run 2) was > 25 µM in each case. The figures for the IC50 with TAG (mean of runs), with TAG (run 1) and in the assay on TAG (run 2) were 4.93 µM, 3.16 µM and 6.71 µM, respectively.
Consider `Cc1ccc(Nc2nc(OC(C(F)(F)F)C(F)(F)F)nc(N3CCOCC3)n2)cc1`, for which the values for the IC50 cytotoxicity (DAPI nuclear signal decrease) in the assay with DAPI (run 1) and in the assay on DAPI (run 2) were 22.3 µM and > 25 µM, respectively. The concentration for half-maximal inhibition (IC50) with TAG (mean of runs) is 7.62 µM; with TAG (run 1) it was 7.92 µM; in the assay on TAG (run 2), 7.32 µM.
Regarding `COC(=O)C1=C(C)N(Cc2ccccc2)C(=NCc2cc(OC)c(OC)c(OC)c2)N[C@H]1c1ccc(Br)cc1`, the figures for the IC50 cytotoxicity (DAPI nuclear signal decrease) in the assay with DAPI (mean of runs), in the assay with DAPI (run 1) and in the assay with DAPI (run 2) were > 25 µM (inactive), > 25 µM and > 25 µM, respectively. Further, the IC50 in the assay with TAG (mean of runs) was > 25 µM (inactive); in the assay with TAG (run 1) it was > 25 µM; with TAG (run 2), > 25 µM.
Consider `CCN(CC(=O)Nc1ccc(C(=O)Nc2ccc(OC)cc2)cc1)Cc1nc2ccccc2c(=O)[nH]1`, for which the IC50 cytotoxicity (DAPI nuclear signal decrease) in the assay with DAPI (mean of runs) is > 25 µM (inactive); in the assay on DAPI (run 1), > 25 µM; in the assay on DAPI (run 2), > 25 µM. The IC50 in the assay on TAG (mean of runs) is > 25 µM (inactive); in the assay on TAG (run 1) it was > 25 µM; with TAG (run 2), > 25 µM.
Regarding `CC(C)(C)NC(=O)C[C@H]1C[C@H](C(=O)N2CCCCC2)[C@@]2(CCc3ccccc3)c3[nH]c4ccc(Cl)cc4c3CCN2C1=O`, the IC50 cytotoxicity (DAPI nuclear signal decrease) with DAPI (mean of runs) was > 25 µM (inactive); in the assay with DAPI (run 1), > 25 µM; with DAPI (run 2), > 25 µM. Moreover, the IC50 with TAG (mean of runs) is 17.7 µM (inactive); with TAG (run 1), 17.1 µM; in the assay on TAG (run 2), 18.2 µM.
As for `COc1cccc(C2c3cc4c(cc3OC(NNC(N)=O)C2C)OCO4)c1O` (stereo unspecified), the IC50 cytotoxicity (DAPI nuclear signal decrease) in the assay on DAPI (mean of runs) is > 25 µM (inactive); in the assay with DAPI (run 1) it was > 25 µM; with DAPI (run 2), > 25 µM. Besides, the values for the IC50 in the assay on TAG (mean of runs), with TAG (run 1) and with TAG (run 2) were > 25 µM (inactive), > 25 µM and > 25 µM, respectively.
As to `O=C1C=CC(O)C2(CO)OC12` (stereo unspecified), the figures for the IC50 cytotoxicity (DAPI nuclear signal decrease) in the assay with DAPI (mean of runs), in the assay on DAPI (run 1) and in the assay on DAPI (run 2) were > 25 µM (inactive), > 25 µM and > 25 µM, respectively. The IC50 in the assay with TAG (run 1) is 14.4 µM; with TAG (run 2) it was > 25 µM.
Regarding `Clc1ccc(-c2csc(NNC3=NCCCCC3)n2)cc1`, the IC50 cytotoxicity (DAPI nuclear signal decrease) was 23.9 µM in the assay on DAPI (run 1) and > 25 µM in the assay with DAPI (run 2). Further, the IC50 in the assay with TAG (run 1) is < 0.78 µM; with TAG (run 2) it was 0.875 µM.
`CCC(=O)Nc1nonc1-c1nc2ccccc2n1Cc1cccc2ccccc12`: the IC50 cytotoxicity (DAPI nuclear signal decrease) was > 25 µM (inactive) in the assay with DAPI (mean of runs), > 25 µM in the assay on DAPI (run 1) and > 25 µM in the assay with DAPI (run 2). In addition, the IC50 in the assay with TAG (mean of runs) is > 25 µM (inactive); in the assay on TAG (run 1), > 25 µM; with TAG (run 2) it was > 25 µM.
Consider `CCCCN(C)C(=O)c1ccc(Nc2nc(C(N)Cc3ccc(C(F)(F)F)cc3)cs2)nc1` (stereo unspecified), for which the IC50 cytotoxicity (DAPI nuclear signal decrease) is > 25 µM (inactive) in the assay on DAPI (mean of runs), > 25 µM in the assay with DAPI (run 1) and > 25 µM in the assay with DAPI (run 2). The IC50 in the assay on TAG (mean of runs) was > 25 µM (inactive); with TAG (run 1), > 25 µM; in the assay on TAG (run 2) it was > 25 µM.
As to `CCCc1[nH]n(-c2ccc([N+](=O)[O-])cc2)c(=O)c1C=NCCc1c[nH]c2ccccc12`, the IC50 cytotoxicity (DAPI nuclear signal decrease) in the assay with DAPI (mean of runs) is > 25 µM (inactive); in the assay on DAPI (run 1) it was > 25 µM; in the assay with DAPI (run 2) it was > 25 µM. For the same compound, the IC50 in the assay with TAG (mean of runs) is 11.9 µM; in the assay on TAG (run 1) it was 10.3 µM; in the assay on TAG (run 2) it was 13.6 µM.
For `COc1ccc(-c2ccc3[nH]c4c(c3c2)CCN2C[C@@H]([C@H](C)OC(=O)Nc3cc(Cl)cc(Cl)c3)[C@@H](N(C)C(=O)Nc3cc(Cl)cc(Cl)c3)C[C@@H]42)cc1`, the IC50 cytotoxicity (DAPI nuclear signal decrease) was > 25 µM (inactive) in the assay with DAPI (mean of runs), > 25 µM in the assay on DAPI (run 1) and > 25 µM in the assay on DAPI (run 2). Further, the IC50 with TAG (mean of runs) was 11.6 µM; in the assay on TAG (run 1), 9.42 µM; in the assay with TAG (run 2), 13.9 µM.
Turning to `CCCCc1ccc(N=N/C(C(=O)Nc2cc(OC)c(NC(C)=O)cc2OC)=C(/C)O)cc1`, the IC50 cytotoxicity (DAPI nuclear signal decrease) with DAPI (mean of runs) is > 25 µM (inactive); in the assay with DAPI (run 1), > 25 µM; with DAPI (run 2), > 25 µM. In addition, the 50% inhibitory concentration (IC50) with TAG (mean of runs) is 10.1 µM; in the assay with TAG (run 1), 11.4 µM; with TAG (run 2), 8.79 µM.
Turning to `CC(=O)O[C@H]1C(=O)[C@]2(C)[C@H]([C@H](OC(=O)c3ccccc3)[C@]3(O)C[C@H](OC(=O)[C@H](O)[C@@H](NC(=O)c4ccccc4)c4ccccc4)C(C)=C1C3(C)C)[C@]1(OC(C)=O)CO[C@@H]1C[C@@H]2O`, the IC50 cytotoxicity (DAPI nuclear signal decrease) in the assay on DAPI (mean of runs) is > 25 µM (inactive); in the assay with DAPI (run 1) it was > 25 µM; in the assay with DAPI (run 2), > 25 µM. For the same compound, the figures for the IC50 in the assay on TAG (mean of runs), with TAG (run 1) and in the assay with TAG (run 2) were > 25 µM (inactive), > 25 µM and > 25 µM, respectively.
On to `CCOC(=O)c1ccc(NC(=O)c2nc[nH]c2C(=O)NCCCCNC(=O)c2[nH]cnc2C(=O)Nc2ccc(C(=O)OCC)cc2)cc1`, for which the IC50 cytotoxicity (DAPI nuclear signal decrease) in the assay with DAPI (run 1) and in the assay with DAPI (run 2) was > 25 µM in each case. The IC50 in the assay on TAG (mean of runs) was 3.89 µM; with TAG (run 1), 3.09 µM; in the assay with TAG (run 2) it was 4.69 µM.
In the case of `CCOCCC(=O)Nc1ccc2c(c1)c(=O)n(C)n2-c1ccc2ccccc2c1`, the IC50 cytotoxicity (DAPI nuclear signal decrease) in the assay with DAPI (mean of runs) is > 25 µM (inactive); in the assay with DAPI (run 1) it was > 25 µM; with DAPI (run 2), > 25 µM. The IC50 in the assay with TAG (mean of runs) is > 25 µM (inactive); in the assay on TAG (run 1) it was > 25 µM; in the assay on TAG (run 2) it was > 25 µM.
Take `CN(C)CCCNC(=O)CC1C[C@H](C(=O)N2CCCCC2)[C@@]2(CCc3ccccc3)c3[nH]c4ccccc4c3CCN2C1=O` (stereo partly specified): the IC50 cytotoxicity (DAPI nuclear signal decrease) in the assay on DAPI (mean of runs) was > 25 µM (inactive); in the assay on DAPI (run 1), > 25 µM; in the assay with DAPI (run 2), > 25 µM. The IC50 was 20 µM (inactive) in the assay with TAG (mean of runs), 23.2 µM in the assay with TAG (run 1) and 16.8 µM in the assay with TAG (run 2).
Turning to `Cc1cc(C)cc(-n2c3ccc(NC(=O)Cc4cccc5ccccc45)cc3c(=O)n2C)c1`, the IC50 cytotoxicity (DAPI nuclear signal decrease) in the assay on DAPI (mean of runs) was > 25 µM (inactive); with DAPI (run 1) it was > 25 µM; with DAPI (run 2) it was > 25 µM. In addition, the IC50 with TAG (run 1) was 21.7 µM; with TAG (run 2) it was > 25 µM.
Take `COCCOC(=O)c1[nH]c2c(c1C)C(=O)CC(c1ccccc1)C2` (stereo unspecified): the IC50 cytotoxicity (DAPI nuclear signal decrease) in the assay on DAPI (mean of runs) is > 25 µM (inactive); in the assay with DAPI (run 1), > 25 µM; in the assay with DAPI (run 2), > 25 µM. Moreover, the IC50 in the assay on TAG (mean of runs) was > 25 µM (inactive); with TAG (run 1) it was > 25 µM; with TAG (run 2), > 25 µM.
Take `NC(=O)c1cc(-c2ccccc2)nc(N2CCOCC2)n1`: the results for the IC50 cytotoxicity (DAPI nuclear signal decrease) in the assay with DAPI (mean of runs), with DAPI (run 1) and in the assay with DAPI (run 2) were > 25 µM (inactive), > 25 µM and > 25 µM, respectively. Moreover, the IC50 with TAG (run 1) was > 25 µM; in the assay with TAG (run 2) it was 20.3 µM.
